# Results taken from publication PMC10830684, “Effect of Oregon grape root extracts on P-glycoprotein mediated transport in in vitro cell lines” (Journal of Pharmacy & Pharmaceutical Sciences, 2024).
# Counter-ions that a name gives are not always drawn. Like-named read-outs stand apart in the source and are kept apart here.
# Tests used:
# P-glycoprotein = P-glycoprotein (Homo sapiens, UniProt P08183); assay: Effect on 3H-CsA and 3H-digoxin transport in Caco-2 cells; conditions: Caco-2 cells
# MDCKII wild-type cells = assay: MTT cytotoxicity assay in MDCKII wild-type cells; format: cell-based, Canine; conditions: MDCKII-WT cells, 4 hours exposure
# Description: (§1) We initiated cytotoxicity experiments with the Caco-2, MDCKII-MDR1 and MDCKII-wild type cells on Day 7 (Caco-2) and Day 4 (MDCKII-MDR1 and MDCKII-wild type) after the initial plating of the cells at 2.5 × 10^3 cells/well in 48-well plates (Becton Dickinson, Franklin Lakes, NJ, USA). See details of preparation for the cytotoxicity experiments in Supplementary Material.
# (§2) We initiated cytotoxicity experiments with the Caco-2, MDCKII-MDR1 and MDCKII-wild type cells on Day 7 (Caco-2) and Day 4 (MDCKII-MDR1 and MDCKII-wild type) after the initial plating of the cells at 2.5x10^3 cells/well in 48-well plates (Becton Dickinson, Franklin Lakes, NJ, USA). Stock solutions of 10 mM berberine or berbamine were prepared by dissolving the compounds in DMSO (berberine) or distilled water (berbamine). […] The final concentration of DMSO was 0.003% (v/v), 0.03% (v/v), 0.3% (v/v), 1% (v/v), 1.5% (v/v), and 3% (v/v) DMSO/culture medium for 0.3 μM, 3 μM, 30 μM, 100 μM, ,150 μM, and 300 μM, respectively. The final concentration of ethanol was 0.15% (v/v) ethanol/culture medium. Ketoconazole (75 µM) was used as a positive control and no treatment (medium alone) was used as a negative control for each experiment.
# (§3) The LDH enzymatic activities were assayed using the method of Mitchell et al.(1). […] Enzyme leakage into the medium was expressed as the percentage of total cellular LDH. The MTT (3-(4,5-dimethythiazole-2yl)-2,5-diphenyl tetrazolium bromide) reduction assay was done according to Mosmann (2). This assay was conducted immediately with the same cells used in the LDH study. The results were expressed as the percentage of negative controls.
# P-glycoprotein (MDR1) = biological target: T1, P-glycoprotein (MDR1) (Homo sapiens, UniProt P08183); assay: Transepithelial transport of berberine and berbamine across MDCKII-MDR1 cells; format: in vitro ADME; conditions: dog, MDCK-MDR1
# T1 construct: expressed in transfected cells; host or cells: MDCKII-MDR1 (Madin-Darby canine kidney II cells overexpressing MDR1)
# T1 sequence (P08183 whole entry): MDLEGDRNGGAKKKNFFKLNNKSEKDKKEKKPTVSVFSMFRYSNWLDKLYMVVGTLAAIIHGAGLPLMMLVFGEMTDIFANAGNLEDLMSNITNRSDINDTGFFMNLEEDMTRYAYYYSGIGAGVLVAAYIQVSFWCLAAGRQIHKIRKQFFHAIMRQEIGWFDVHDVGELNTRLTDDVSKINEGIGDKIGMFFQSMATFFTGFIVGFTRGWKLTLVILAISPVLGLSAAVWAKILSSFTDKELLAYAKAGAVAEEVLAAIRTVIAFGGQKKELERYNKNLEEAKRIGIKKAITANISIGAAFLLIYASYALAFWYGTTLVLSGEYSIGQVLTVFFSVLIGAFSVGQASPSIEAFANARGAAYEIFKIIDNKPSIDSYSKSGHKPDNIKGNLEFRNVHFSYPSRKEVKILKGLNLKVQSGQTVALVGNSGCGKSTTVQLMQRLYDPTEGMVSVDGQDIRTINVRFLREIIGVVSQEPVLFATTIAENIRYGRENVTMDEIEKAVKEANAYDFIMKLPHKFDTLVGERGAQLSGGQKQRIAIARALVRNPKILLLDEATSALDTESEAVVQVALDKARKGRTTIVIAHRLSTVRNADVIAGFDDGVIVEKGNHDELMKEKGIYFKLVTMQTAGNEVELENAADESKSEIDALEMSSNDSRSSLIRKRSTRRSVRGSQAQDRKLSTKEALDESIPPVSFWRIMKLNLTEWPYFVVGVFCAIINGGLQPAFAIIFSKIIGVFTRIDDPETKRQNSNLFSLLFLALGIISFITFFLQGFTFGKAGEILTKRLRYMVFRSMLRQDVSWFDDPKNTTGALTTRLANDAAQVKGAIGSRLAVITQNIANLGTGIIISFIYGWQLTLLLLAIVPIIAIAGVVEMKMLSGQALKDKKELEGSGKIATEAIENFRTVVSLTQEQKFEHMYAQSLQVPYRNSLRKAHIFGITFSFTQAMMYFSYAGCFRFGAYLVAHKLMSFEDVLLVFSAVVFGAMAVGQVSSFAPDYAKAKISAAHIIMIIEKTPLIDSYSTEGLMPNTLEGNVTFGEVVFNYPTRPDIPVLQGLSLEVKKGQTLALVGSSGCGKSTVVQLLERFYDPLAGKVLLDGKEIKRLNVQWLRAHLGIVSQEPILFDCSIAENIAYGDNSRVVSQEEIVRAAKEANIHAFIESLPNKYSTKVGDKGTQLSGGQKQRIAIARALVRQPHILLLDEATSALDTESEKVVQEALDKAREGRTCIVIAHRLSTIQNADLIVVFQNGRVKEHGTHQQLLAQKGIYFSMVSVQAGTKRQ
# Protocol: Transport of ^3H-CsA and ^3H-digoxin (0.5 µM and 1.0 µCi), MDR1 substrates, were performed using transport buffer consisting of HBSS with 10 mM HEPES and 25 mM D-glucose at a pH of 6.8 for the apical (A) compartment and 7.4 for the basolateral (B) compartment. Experiments were performed at 37°C, 5% CO2, and 95% relative humidity. Cells in the Transwell® inserts were washed 3 times with a transport buffer and allowed to equilibrate for 30 min prior to the addition of test compounds. […] To evaluate the efflux mechanism involved with berberine and berbamine, 100 µM of berberine and berbamine were placed in the donor chamber and 100 µL samples were collected in the receiver chamber at 0, 0.5, 1.0, 1.5, 2.0, 2.5, and 3.0 h and analyzed by HPLC. Each experiment was performed in duplicate and repeated for each condition tested. […] A 100 µL sample was taken from the donor chamber at 3 h in order to calculate the mass balance of radioactivity to determine if adsorption to the cell culture transport apparatus had occurred. Each sample was placed in 0.9 mL of scintillation fluor (Cytoscint ES, ICN, Cosa Mesa, CA, USA) and read on a Beckman LS 6500 (Palo Alto, CA, USA) scintillation counter for ^3H activity. […]
# The apparent permeability (Papp) was calculated using the following equation [40]: Papp=dQ/dt×1/A×C0 […]
# Caco-2 cells [1] = assay: MTT cytotoxicity assay in Caco-2 cells; format: cell-based, human; conditions: for MTT assay: 4 hours exposure
# Description: as §1
# (§4) We initiated cytotoxicity experiments with the Caco-2, MDCKII-MDR1 and MDCKII-wild type cells on Day 7 (Caco-2) and Day 4 (MDCKII-MDR1 and MDCKII-wild type) after the initial plating of the cells at 2.5x10^3 cells/well in 48-well plates (Becton Dickinson, Franklin Lakes, NJ, USA). Stock solutions of 10 mM berberine or berbamine were prepared by dissolving the compounds in DMSO (berberine) or distilled water (berbamine).
# as §3
# Caco-2 cells [2] = assay: Transepithelial transport of berberine and berbamine across Caco-2 cells; format: in vitro ADME, human
# Protocol: (§5) Transport of ^3H-CsA and ^3H-digoxin (0.5 µM and 1.0 µCi), MDR1 substrates, were performed using transport buffer consisting of HBSS with 10 mM HEPES and 25 mM D-glucose at a pH of 6.8 for the apical (A) compartment and 7.4 for the basolateral (B) compartment. Experiments were performed at 37°C, 5% CO2, and 95% relative humidity. Cells in the Transwell® inserts were washed 3 times with a transport buffer and allowed to equilibrate for 30 min prior to the addition of test compounds. […] To evaluate the efflux mechanism involved with berberine and berbamine, 100 µM of berberine and berbamine were placed in the donor chamber and 100 µL samples were collected in the receiver chamber at 0, 0.5, 1.0, 1.5, 2.0, 2.5, and 3.0 h and analyzed by HPLC. Each experiment was performed in duplicate and repeated for each condition tested. For experiments performed in “non-sink” conditions, 100 µL aliquots were taken from the donor and receiver chambers at the beginning and from the receiver chamber at 0.5, 1.0, 1.5, 2.0, 2.5, and 3.0 h. An equal volume of 100 µL was replaced in the chamber at each sample time point. “Non-sink” conditions were performed when less than 10% of compound is transported across cells during the transport experiment such that a concentration gradient was always present. For the “sink” condition experiments, the entire receiver volume was replaced at each time interval and a 100 µL aliquot was taken from the receiver volume for scintillation counting. A 100 µL sample was taken from the donor chamber at 3 h in order to calculate the mass balance of radioactivity to determine if adsorption to the cell culture transport apparatus had occurred. Each sample was placed in 0.9 mL of scintillation fluor (Cytoscint ES, ICN, Cosa Mesa, CA, USA) and read on a Beckman LS 6500 (Palo Alto, CA, USA) scintillation counter for ^3H activity. For berberine and berbamine analysis, 100 µL aliquot was assayed by HPLC.
# (§6) The apparent permeability (Papp) was calculated using the following equation [40]: Papp=dQ/dt×1/A×C0
# (§7) Where A is the surface area of the monolayer (4.71 cm^2) and C0 is the initial concentration of radiolabeled probe substrate in the donor compartment. dQ/dt is the slope of the steady-state rate constant. The efflux ratio was determined by dividing the Papp in the B to A direction by the Papp in the A to B direction: Efflux ratio=PappB to A/PappA to B
# (§8) A Waters 2690 separations module with a Model 996 photodiode array detector with the Millennium 32 Chromatograph Manager version 3.0 software (Waters Corporation, Milford, MA, USA) was used for HPLC analysis. […] All the standards and samples were filtered (0.2 µm) prior to injection. Ten µL was injected onto a 250 × 4.6 mm i.d., […], Zorbax Eclipse X DB-C18 Column (Agilent Technologies, Palo Alto, CA, USA) with a 3.9 × 20 mm i.d. Symmetry® C18 guard column, with an isocratic mobile phase of 32:68 acetonitrile:buffer. The buffer consisted of 30 mM ammonium acetate and 14 mM TEA and was adjusted to pH 4.85 with acetic acid. A flow rate of 1 mL/min and UV absorption at 254 nm was used for analysis. The retention time of berberine and berbamine was 7.84 min and 3.03 min, respectively. The cumulative amount of transport was determined using the corresponding peak area for berberine or berbamine. The cumulative amount of berberine or berbamine transported across the cell membrane was evaluated as a functionof time. The Papp was calculated by the following equation: […]
# [3] = as above; format: in vitro ADME, human; conditions: human
# Protocol: as §5, §6, §7, §8
# MDCKII-MDR1 cells = assay: MTT cytotoxicity assay in MDCKII-MDR1 cells; format: cell-based, Canine; conditions: 4 hours exposure
# Description: as §1, §2, §3
# Caco-2 cells [4] = assay: LDH leakage cytotoxicity assay in Caco-2 cells; format: cell-based, human; conditions: 300 µM, 4 hours exposure
# Description: as §1, §4, §3
# human MDR1 mRNA = assay: Real time RT-PCR of MDR1 mRNA in Caco-2 cells; format: cell-based; conditions: 100 µM, positive control
# P-gp = system: P-gp; design: method as in PMID 12434406; conditions: Caco-2 cells; inhibitor 1 mM; cited from earlier work
# [5] = 14C-mannitol permeability (monolayer integrity) in MDCKII-MDR1 cells; format: in vitro ADME, Canine; conditions: dog, MDCK-MDR1, read-out: apparent permeability (Papp)
# Protocol: (§9) The human intestinal epithelial cell line, LS-180 was purchased from American Type Culture Collection (ATCC) (Manassas, VA, USA) and grown in Minimum Essential Medium supplemented with 10% FBS. The Caco-2 cells were obtained from ATCC. MDCKII-MDR1 and MDCKII wild-type cell lines were a generous gift from Dr. Piet Borst (The Netherlands Cancer Research Institute). Both Caro-2 and MDCKII cells were grown in DMEM, 10% FBS, 0.1 mM non-essential amino acids, and 0.01% penicillin/streptomycin [38, 39]. […] For the transport experiments, cells were seeded, 3.0 × 10^5cells/well, onto 6-well Transwell® inserts 4.71 cm^2 (Corning Costar, Cambridge, MA, USA) and maintained until use on Days 21–25 (Caco-2, passages 23–30) and Days 6–7 (MDCKII-MDR1 and MDCKII wild-type). The integrity of the monolayers was assessed by measuring transepithelial electrical resistance (TEER) using a World Precision Instrument, EVOM (Sarasota, FL, USA) and evaluating ^14C-mannitol transport. […] For the real time RT-PCR, cells were seeded at 6 × 10^5 cells/well (Caco-2) and 1 × 10^6 cells/well (LS-180) onto 6-well Transwell® inserts 4.71 cm^2 and grown for 7 (Caco-2) and 6 (LS-180) days.
# Caco-2 cells [6] = assay: 14C-mannitol permeability (monolayer integrity) in Caco-2 cells; format: in vitro ADME, human; conditions: various treatment conditions, throughout the entire experiment
# Protocol: as §9
# [7] = as above; format: in vitro ADME, human; conditions: human, Caco-2 cells, read-out: apparent permeability (Papp)
# Protocol: as §9
# [8] = 14C-mannitol permeability (monolayer integrity) in MDCKII wild-type cells; format: in vitro ADME, Canine; conditions: dog, MDCK, read-out: apparent permeability (Papp)
# Protocol: as §9
# Chain of P-glycoprotein (P08183 whole entry): as above
structure (smiles),measurement,setting,value
"COc1cc2c3cc1Oc1c(OC)c(OC)cc4c1[C@@H](Cc1ccc(O)c(c1)Oc1ccc(cc1)C[C@@H]3N(C)CC2)N(C)CC4 [Berbamine, berbamine dihydrochloride]",lowest concentration with significant decrease of B to A transport of 0.5 µM 3H-CsA,P-glycoprotein,30 µM
same,MTT assay,MDCKII wild-type cells; 0.03 µM,□ (%MTT reduction is not significantly decreased compared with the negative control)
same,MTT assay,MDCKII wild-type cells; 0.3 µM,□ (%MTT reduction is not significantly decreased compared with the negative control)
same,MTT assay,MDCKII wild-type cells; 30 µM,□ (%MTT reduction is not significantly decreased compared with the negative control)
same,MTT assay,MDCKII wild-type cells; 100 µM,□ (%MTT reduction is not significantly decreased compared with the negative control)
same,MTT assay,MDCKII wild-type cells; 150 µM,□ (%MTT reduction is not significantly decreased compared with the negative control)
same,MTT assay,MDCKII wild-type cells; 300 µM,64.32 ± 13.1%
same,"efflux ratio at 3 h, 100 µM",P-glycoprotein (MDR1),27.4 ± 5.1
same,MTT assay,Caco-2 cells [1]; 0.03 µM,□ (%MTT reduction is not significantly decreased compared with the negative control)
same,MTT assay,Caco-2 cells [1]; 0.3 µM,□ (%MTT reduction is not significantly decreased compared with the negative control)
same,MTT assay,Caco-2 cells [1]; 30 µM,□ (%MTT reduction is not significantly decreased compared with the negative control)
same,MTT assay,Caco-2 cells [1]; 100 µM,□ (%MTT reduction is not significantly decreased compared with the negative control)
same,MTT assay,Caco-2 cells [1]; 150 µM,□ (%MTT reduction is not significantly decreased compared with the negative control)
same,MTT assay,Caco-2 cells [1]; 300 µM,64.99 ± 11.46%
same,earliest time of significant increase in LDH leakage and decrease in MTT reduction,"Caco-2 cells [1]; 300 µM, time-response 2, 4, 6, 8 hr, data not shown",2 h
same,transport in the A to B direction,"Caco-2 cells [2]; 100 µM, Caco-2 cells",0.39 nmol/min
same,transport in the B to A direction,"Caco-2 cells [2]; 100 µM, Caco-2 cells",5.94 nmol/min
same,extent of efflux relative to berberine,Caco-2 cells [2]; Caco-2 and MDCKII-MDR1 cells,~5 fold
same,"efflux ratio at 3 h, 100 µM","[3]; Caco-2, 100 µM, Caco-2 cells, read-out: fold increase of Papp B to A compared with A to B",~30
same,"efflux ratio at 3 h, 100 µM","[3]; Caco-2, Caco-2 cells, read-out: efflux ratio",24.2 ± 4.5
same,"Papp A→B at 3 h, 100 µM","[3]; 100 µM, Caco-2 cells, read-out: Papp A to B direction",2.49 ×10⁻⁶ cm/s
same,"Papp B→A at 3 h, 100 µM","[3]; 100 µM, Caco-2 cells, read-out: Papp B to A direction",60.3 ×10⁻⁶ cm/s
same,MTT assay,MDCKII-MDR1 cells; 0.03 µM,□ (%MTT reduction is not significantly decreased compared with the negative control)
same,MTT assay,MDCKII-MDR1 cells; 0.3 µM,□ (%MTT reduction is not significantly decreased compared with the negative control)
same,MTT assay,MDCKII-MDR1 cells; 30 µM,□ (%MTT reduction is not significantly decreased compared with the negative control)
same,MTT assay,MDCKII-MDR1 cells; 100 µM,□ (%MTT reduction is not significantly decreased compared with the negative control)
same,MTT assay,MDCKII-MDR1 cells; 150 µM,□ (%MTT reduction is not significantly decreased compared with the negative control)
same,MTT assay,MDCKII-MDR1 cells; 300 µM,□ (%MTT reduction is not significantly decreased compared with the negative control)
same,LDH assay,Caco-2 cells [4],43.88 ± 7.44%
N[C@@H](Cc1cc(I)c(Oc2cc(I)c(O)c(I)c2)c(I)c1)C(=O)O [levothyroxine],P-gp (MDR1) mRNA,human MDR1 mRNA,significantly increase
COC(=O)c1ccccc1-c1c2ccc(=N)cc-2oc2cc(N)ccc12 [rhodamine123],inhibition of the efflux of 20 µM berberine,P-gp,100%
COc1cccc2c1C(=O)c1c(O)c3c(c(O)c1C2=O)C[C@@](O)(C(C)=O)C[C@@H]3O[C@H]1C[C@H](N)[C@H](O)[C@H](C)O1 [daunomycin],inhibition of the efflux of 20 µM berberine,P-gp,100%
OC[C@@H](O)[C@@H](O)[C@H](O)[C@H](O)CO [mannitol],Papp,[5],2.38 ± 0.13 ×10⁻⁶ cm/s
same,transport rate,Caco-2 cells [6],less than 1 % per hour
same,Papp,[7],2.09 ± 0.4 ×10⁻⁶ cm/s
same,Papp,[8],2.16 ± 0.72 ×10⁻⁶ cm/s
